Measured values as given in paper PMC3124361 (Journal of medicinal chemistry, 2011).
Converted amounts (≈) assume the structure as drawn.

Experiments:
PfDHODH = biological target: T1, PfDHODH (Plasmodium falciparum, UniProt Q08210); assay: PfDHODH DCIP dye-based enzyme assay; assay type: biochemical; details: for IC50: IC50 PfDHODH
T1 sequence (Q08210 158-569 limits assumed): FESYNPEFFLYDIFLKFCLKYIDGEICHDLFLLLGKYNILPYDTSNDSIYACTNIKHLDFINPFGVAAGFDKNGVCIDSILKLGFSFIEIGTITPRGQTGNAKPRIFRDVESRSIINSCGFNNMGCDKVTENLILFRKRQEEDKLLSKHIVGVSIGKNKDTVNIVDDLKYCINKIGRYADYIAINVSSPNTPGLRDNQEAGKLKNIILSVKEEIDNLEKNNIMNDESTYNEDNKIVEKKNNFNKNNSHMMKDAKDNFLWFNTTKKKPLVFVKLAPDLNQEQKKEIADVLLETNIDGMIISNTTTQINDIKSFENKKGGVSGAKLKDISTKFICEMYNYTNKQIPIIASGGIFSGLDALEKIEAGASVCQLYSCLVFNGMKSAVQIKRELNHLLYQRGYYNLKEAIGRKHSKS

[1] = Non-equilibrium solubility by nephelometry, pH 6.5; assay type: physicochemical; details: for solubility: phosphate buffer
human albumin = human albumin (Homo sapiens, UniProt P02768); assay: Protein binding estimated on human albumin column; assay type: in vitro ADME; details: human albumin chromatographic method
human albumin, sequence (P02768 25-609): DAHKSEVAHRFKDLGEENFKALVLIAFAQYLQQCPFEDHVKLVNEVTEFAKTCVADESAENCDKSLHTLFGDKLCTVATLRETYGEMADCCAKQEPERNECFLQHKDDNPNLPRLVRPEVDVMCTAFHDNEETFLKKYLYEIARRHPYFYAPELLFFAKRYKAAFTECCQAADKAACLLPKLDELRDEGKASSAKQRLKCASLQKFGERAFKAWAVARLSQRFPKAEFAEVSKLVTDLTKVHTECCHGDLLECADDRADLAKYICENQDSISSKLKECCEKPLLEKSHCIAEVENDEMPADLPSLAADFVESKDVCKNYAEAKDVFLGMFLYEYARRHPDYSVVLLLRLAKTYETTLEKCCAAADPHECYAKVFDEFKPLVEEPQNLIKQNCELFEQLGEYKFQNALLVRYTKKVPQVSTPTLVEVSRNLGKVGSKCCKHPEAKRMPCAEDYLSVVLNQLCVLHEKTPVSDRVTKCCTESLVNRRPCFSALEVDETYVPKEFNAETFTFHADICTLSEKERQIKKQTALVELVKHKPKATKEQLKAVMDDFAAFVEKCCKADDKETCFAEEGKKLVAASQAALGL

[2] = In vitro metabolism in human liver microsomes; assay type: in vitro ADME; details: for microsomal CLint at 1 μM: microsomes, pH 7.4; for Eh Human: predicted hepatic extraction ratio
[3] = In vitro metabolism in mouse liver microsomes; assay type: in vitro ADME; details: for microsomal CLint at 1 μM: microsomes, pH 7.4; for Eh Mouse: predicted hepatic extraction ratio

## Cc1cc(NC2CCCCCCC2)n2ncnc2n1 [Compound 43, N-Cyclooctyl-5-methyl-[1,2,4]triazolo[1,5-a]pyrimidin-7-amine]
PfDHODH
  IC50: > 100 µM

## Cc1cc(NC2CC2)n2ncnc2n1 [Compound 38, N-Cyclopropyl-5-methyl-[1,2,4]triazolo[1,5-a]pyrimidin-7-amine]
PfDHODH
  IC50: > 100 µM

## C#Cc1ccc(Nc2cc(C)nc3ncnn23)cc1 [Compound 18, N-(4-Ethynylphenyl)-5-methyl-[1,2,4]triazolo[1,5-a]pyrimidin-7-amine]
[1]
  solubility: 100 to 200 µM (≈ 24.9 to 49.9 µg/mL)
Human albumin
  Human Plasma Binding: 81.8%
[2]
  microsomal CLint at 1 μM: < 10 µL/min/mg
  Eh Human: 0.31
[3]
  microsomal CLint at 1 μM: > 25 µL/min/mg
  Eh Mouse: 0.54

## Cc1cc(Nc2ccc(Cl)c(F)c2)n2ncnc2n1 [Compound 30, N-(4-Chloro-3-fluorophenyl)-5-methyl-[1,2,4]triazolo[1,5-a]pyrimidin-7-amine]
PfDHODH; comparator 4-Cl-Ph (DSM89)
  fold decrease in PfDHODH IC50 over the 4-Cl alone: 3 fold

## Cc1cc(Nc2ccc3c(c2)OCO3)n2ncnc2n1 [Compound 35, N-(Benzo[d][1,3]dioxol-5yl)-5-methyl-[1,2,4]triazolo[1,5-a]pyrimidin-7-amine]
[1]
  aqueous solubility at pH 6.5 (in words): highly soluble
  solubility: 186 to 372 µM (≈ 50.1 to 100 µg/mL)
[2]
  Eh Human: 0.37/ND

## Cc1cc(NCc2ccc(C(F)(F)F)cc2)n2ncnc2n1 [Compound 55]
PfDHODH
  activity against PfDHODH (in words): inactive
  IC50: > 100 µM

## CCCCc1ccc(Nc2cc(C)nc3ncnn23)cc1 [Compound 9, N-(4-Butylphenyl)-5-methyl-[1,2,4]triazolo[1,5-a]pyrimidin-7-amine]
[1]
  aqueous solubility at pH 6.5 (in words): poorly soluble
  solubility: 11 to 22 µM (≈ 3.09 to 6.19 µg/mL)
Human albumin
  Human Plasma Binding: 96.7%
[2]
  Eh Human: 0.67/ND

## Cc1cc(NCc2ccc(F)cc2)n2ncnc2n1 [Compound 54]
PfDHODH
  activity against PfDHODH (in words): inactive
  IC50: > 100 µM

## Cc1cc(Nc2ccc(C3CC3)cc2)n2ncnc2n1 [Compound 16, N-(4-Cyclopropylphenyl)-5-methyl-[1,2,4]triazolo[1,5-a]pyrimidin-7-amine]
[1]
  aqueous solubility at pH 6.5 (in words): highly soluble
Human albumin
  Human Plasma Binding: 86.8%
[2]
  Eh Human: 0.75
[3]
  Eh Mouse: 0.93

## Cc1cc(NC2CCc3ccccc3C2)n2ncnc2n1 (stereo not shown) [Compound 49, 5-Methyl-N-(1,2,3,4-tetrahydronaphthalen-2-yl)-[1,2,4]triazolo[1,5-a]pyrimidin-7-amine]
[1]
  aqueous solubility at pH 6.5 (in words): highly soluble
[2]
  microsomal CLint at 1 μM: < 10 µL/min/mg
  Eh Human: < 0.2
[3]
  microsomal CLint at 1 μM: > 25 µL/min/mg
  Eh Mouse: 0.61

## CCCc1ccc(Nc2cc(C)nc3ncnn23)cc1 [Compound 8, N-(4-Propylphenyl)-5-methyl-[1,2,4]triazolo[1,5-a]pyrimidin-7-amine]
[1]
  aqueous solubility at pH 6.5 (in words): highly soluble
  solubility: 187 to 374 µM (≈ 50 to 100 µg/mL)
Human albumin
  Human Plasma Binding: 93.5%
[2]
  Eh Human: 0.66/ND

## CCCCCCCCc1ccc(Nc2cc(C)nc3ncnn23)cc1 [Compound 13, N-(4-Octylphenyl)-5-methyl-[1,2,4]triazolo[1,5-a]pyrimidin-7-amine]
PfDHODH
  IC50: > 50 µM

## Cc1cc(Nc2ccc3c(c2)CCC3)n2ncnc2n1 [Compound 34, N-(2,3-dihydro1H-inden-5-yl)-5-methyl-[1,2,4]triazolo[1,5-a]pyrimidin-7-amine]
[1]
  solubility: 47 to 94 µM (≈ 12.5 to 24.9 µg/mL)
Human albumin
  Human Plasma Binding: 92.5%
[2]
  Eh Human: 0.81
[3]
  Eh Mouse: 0.94

## FC(F)(F)c1ccc(Nc2cc(Cl)nc3ncnn23)cc1 [Compound 61]
PfDHODH; comparator 2
  fold better activity (lower IC50) against PfDHODH than 2: 2 fold

## Cc1cc(NC2CCCCCC2)n2ncnc2n1 [Compound 42, N-Cycloheptyl-5-methyl-[1,2,4]triazolo[1,5-a]pyrimidin-7-amine]
PfDHODH
  IC50: > 100 µM

## CCc1ccc(Nc2cc(C)nc3ncnn23)cc1 [Compound 7, N-(4-Ethylphenyl)-5-methyl-[1,2,4]triazolo[1,5-a]pyrimidin-7-amine]
[1]
  solubility: 25 to 50 µM (≈ 6.33 to 12.7 µg/mL)
Human albumin
  Human Plasma Binding: 88.0%
[2]
  Eh Human: 0.77/ND

## Cc1cc(Nc2ccc(NC(C)(C)C)cc2)n2ncnc2n1 [Compound 26, N^1-tert-Butyl-N^4(5-methyl-[1,2,4]triazolo[1,5-a]pyrimidin-7-yl)benzene-1,4-diamine]
PfDHODH
  IC50: > 50 µM

## CCc1cc(Nc2ccc(C(F)(F)F)cc2)n2ncnc2n1 [Compound 59, 5-Ethyl-N-(4-trifluoromethyl)phenyl-[1,2,4]triazolo[1,5-a]pyrimidin-7-amine]
PfDHODH; comparator 2
  fold reduction in PfDHODH inhibitory activity versus 2: 2 fold

## FC(F)(F)c1ccc(Nc2cc(C(F)(F)F)nc3ncnn23)cc1 [Compound 60]
PfDHODH; comparator 2
  fold reduction in PfDHODH inhibitory activity versus 2: 4 fold

## Cc1cc(NCCCc2ccccc2)n2ncnc2n1 [Compound 57]
PfDHODH
  activity against PfDHODH (in words): mid-micromolar range activity

## Cc1cc(NCc2ccccc2)n2ncnc2n1 [Compound 53]
PfDHODH
  IC50: > 100 µM

## Cc1cc(Nc2ccc(N3CCOCC3)cc2)n2ncnc2n1 [Compound 25, N-(4-Morpholinophenyl)-5-methyl-[1,2,4]triazolo[1,5-a]pyrimidin-7-amine]
PfDHODH
  IC50: > 100 µM

## Cc1cc(NC2CCC2)n2ncnc2n1 [Compound 39, N-Cyclobutyl-5-methyl-[1,2,4]triazolo[1,5-a]pyrimidin-7-amine]
PfDHODH
  IC50: > 100 µM

## CCCc1c(C)nc2ncnn2c1Nc1ccc(C)cc1 [Compound 64]
PfDHODH
  activity against PfDHODH (in words): complete loss in activity
  IC50: > 100 µM

## Cc1cc(NOc2ccccc2)n2ncnc2n1 [Compound 52, N-(5-Methyl-[1,2,4]triazolo[1,5-a]pyrimidin-7-yl)-O-phenylhydroxylamine]
PfDHODH
  activity against PfDHODH (in words): inactive
  IC50: > 100 µM

## Cc1cc(NCCc2ccccc2)n2ncnc2n1 [Compound 56, 5-Methyl-N-phenethyl-[1,2,4]triazolo[1,5-a]pyrimidin-7-amine]
PfDHODH
  activity against PfDHODH (in words): mid-micromolar range activity

## Cc1cc(NC2CCCCC2)n2ncnc2n1 [Compound 41, N-Cyclohexyl-5-methyl-[1,2,4]triazolo[1,5-a]pyrimidin-7-amine]
PfDHODH
  IC50: > 100 µM

## Cc1cc(Nc2ccc(N(C)C)cc2)n2ncnc2n1 [Compound 23, N^1,N^1-Dimethyl-N^4-(5-methyl-[1,2,4]triazolo[1,5-a]pyrimidin-7-yl)benzene-1,4-diamine]
PfDHODH; comparator 14
  fold less potent / increase of PfDHODH IC50 over 14: 4 fold
[1]
  solubility: 93 to 186 µM (≈ 25 to 49.9 µg/mL)
[2]
  Eh Human: 0.4
[3]
  Eh Mouse: 0.91

## Cc1cc(NC2CCCC2)n2ncnc2n1 [Compound 40, N-Cyclopentyl-5-methyl-[1,2,4]triazolo[1,5-a]pyrimidin-7-amine]
PfDHODH
  IC50: > 100 µM
